Among the data in patent publication US8158621B2, “Methods of treating or preventing autoimmune diseases with 2,4-pyrimidinediamine compounds” (Rigel Pharmaceuticals, Inc., priority 2002, dated 2012) are IC50 values, retold here.

Bounds are passed on as bounds.

The first assay deals with Human Jurkat T-cells (clone N). Nature of the assay: Jurkat T-cell activation (anti-TCR, CD69 upregulation). Format: cell-based.
Conditions: not given
In short, it runs like this:
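Readout is CD69 upregulation by flow cytometry (anti-CD69-APC, 20 min at 4 °C) after 20 h anti-TCR (C305, 500 ng/ml) stimulation at 37 °C.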
As a reminder, the IC50 is the concentration that inhibits the measured activity by half. `CCOc1ccc(Nc2ncc([N+](=O)[O-])c(Nc3ccc(OCC)cc3)n2)cc1` [Compound R940090] returned an IC50 greater than 10 µM.

In the case of `Oc1cccc(Nc2nc(NC3CCN(Cc4ccccc4)CC3)ncc2F)c1` [Compound R940264], the IC50 is greater than 10 µM.

In turn, `CNCCNC(=O)c1cc2cc(Nc3ncc(F)c(Nc4ccc5oc(C(=O)NCCNC)cc5c4)n3)ccc2o1` [Compound R950170] returned a 50% inhibitory concentration (IC50) greater than 10 µM.

In the case of `CCOC(=O)CNc1nc(Nc2ccc(OCC(=O)OCC)cc2)nc(C(=O)OCC)c1[N+](=O)[O-]` [Compound R925858], the IC50 is greater than 10 µM.

For the compound `CNC(=O)COc1cccc(Nc2ncc(F)c(Nc3ccc4c(c3)C(=NOC)CCO4)n2)c1` [Compound R950356], the midpoint of inhibition, the IC50, lay at 5.73 µM.

Regarding `CNC(=O)Cn1ncc2cc(Nc3ncc(F)c(Nc4ccc5c(c4)OCCO5)n3)ccc21` [Compound R935240], half-maximal inhibition (IC50) required 2.71 µM.

In the case of `O=C(COc1cccc(Nc2ncc(F)c(Nc3ccc4c(c3)OCCO4)n2)c1)NC1CCCCC1` [Compound R926765], the IC50 came to 8 µM.

`CCOC1CCOc2ccc(Nc3nc(Nc4cccc(OCC(=O)NC)c4)ncc3F)cc21` (stereo not shown) [Compound R950296] displayed an IC50 of 1.95 µM.

In the case of `CSc1nc(Nc2cccc(O)c2)nc(Nc2cccc(O)c2)c1Cl` [Compound R926595], the IC50 is greater than 10 µM.

`COC(=O)Cn1ncc2ccc(Nc3ncc(F)c(Nc4ccc5c(c4)OCCO5)n3)cc21` [Compound R935208] displayed an IC50 of 2.88 µM.

`CNC(=O)COc1cccc(Nc2ncc(F)c(Nc3cccc(NC)c3)n2)c1` [Compound R950267] had an IC50 of 1.99 µM.

The compound `Cc1noc(COc2ccc(Nc3ncc(F)c(Nc4ccc(OC(C)C)cc4)n3)cc2)n1` [Compound R935142] displayed an IC50 of 9.67 µM.

Regarding `COC(=O)c1cc2cc(Nc3ncc(F)c(Nc4ccc5c(c4)C(=O)OC5)n3)ccc2o1` [Compound R940294], the IC50 is greater than 10 µM.

As to `CCOC(=O)COc1cccc(Nc2ncc(F)c(Nc3ccc(O)c(C(=O)OC)c3)n2)c1` [Compound R950293], the IC50 was greater than 10 µM.

`CNC(=O)CCn1ncc2cc(Nc3ncc(F)c(Nc4ccc(OC(C)C)cc4)n3)ccc21` [Compound R935310] yielded an IC50 of 0.88 µM.

Regarding `Cc1ccc(Nc2nc(Cl)ncc2F)cc1CNC(=O)OC(C)(C)C` [Compound R926924], the midpoint of inhibition, the IC50, lay at 3.23 µM.

As for `O=C(O)COc1cccc(Nc2ncc(F)c(Nc3cccc(O)c3)n2)c1` [Compound R945126], the IC50 is greater than 10 µM.

`CNCCNC(=O)CNc1cccc(Nc2ncc(F)c(Nc3ccc4c(c3)OCCO4)n2)c1` [Compound R950196] yielded an IC50 of 2.08 µM.

On to `CNC(=O)COc1cccc(Nc2ncc(F)c(Nc3ccc(OC)c(C(=O)OC)c3)n2)c1` [Compound R940300], for which half-maximal inhibition (IC50) was put at 9.28 µM.

As for `O=C(COc1cccc(Nc2ncc(F)c(Nc3cc(Cl)c(O)c(Cl)c3)n2)c1)N1CCNCC1` [Compound R950188], half-maximal inhibition (IC50) was put at 17.9 µM.

The compound `CNC(=O)COc1cccc(Nc2ncc(F)c(Nc3ccc4c(c3)C(=O)CCC4)n2)c1` [Compound R926947] came in with an IC50 of 13.3 µM.

`CC(C)(C)c1cccc(Nc2nc(Nc3cccc(OCCO)c3)ncc2F)c1` [Compound R940282] yielded an IC50 of 6.71 µM.

As for `CNC(=O)COc1ccc(Nc2ncc(F)c(Nc3cccc(O)c3)n2)cc1` [Compound R945170], 4.12 µM corresponded to half-maximal inhibition (IC50). Against the preceding compound, the IC50 is about 1.6-fold lower.

The compound `CNC(=O)COc1cccc(Nc2ncc(F)c(Nc3ccc4c(c3)C(OC(C)=O)CCO4)n2)c1` (stereo not shown) [Compound R950382] showed an IC50 of 1.55 µM.

Consider `Cc1nc(COc2cccc(Nc3ncc(F)c(Nc4ccc5c(c4)OCCO5)n3)c2)no1` [Compound R945128], for which the IC50 stood at 4.31 µM.

Regarding `N#CCOc1ccc(Nc2nc(Nc3cccc(O)c3)ncc2F)cc1` [Compound R945071], it took 0.631 µM to reach half-maximal inhibition (IC50). This IC50 lies about 6.8-fold lower than the previous one.

`OCCOc1ccc(Nc2ncc(F)c(Nc3ccc4c(c3)OCCCO4)n2)cc1` [Compound R935183] had an IC50 of 2.27 µM.

Regarding `Cn1ncc2cc(Nc3ncc(F)c(Nc4ccc5c(cnn5C)c4)n3)ccc21` [Compound R935192], the IC50 was found to be 5.39 µM.

`Cc1nc(COc2cccc(Nc3nc(Nc4ccc(OC(C)C)cc4)ncc3F)c2)no1` [Compound R945138] yielded an IC50 greater than 10 µM.

In turn, `Cc1nc(COc2cccc(Nc3ncc(F)c(Nc4ccc5oc(C(N)=O)cc5c4)n3)c2)no1` [Compound R945135] registered an IC50 of 4.37 µM.

As for `CNC(=O)COc1cccc(Nc2ncc(F)c(Nc3ccc(OCCC(=O)O)cc3)n2)c1` [Compound R950344], the IC50 was greater than 10 µM.

Staying with this assay, now noted: Homo sapiens.
Take `Fc1cnc(Nc2ccc3cc[nH]c3c2)nc1Nc1ccc2cc[nH]c2c1` [Compound R926594]: it took 1.25 µM to reach half-maximal inhibition (IC50).

Staying with this assay, now noted: Homo sapiens, Jurkat.
Regarding `COC(=O)c1cc(Nc2ncc(F)c(Nc3ccc(OC)c(C(=O)OC)c3)n2)ccc1OC` [Compound R945066], the IC50 amounted to 43.2 µM. That is a double-digit micromolar value.

As for `Oc1cccc(Nc2nc(Nc3cccc(-c4cc[nH]n4)c3)ncc2F)c1` [Compound R926841], it took 3.28 µM to reach half-maximal inhibition (IC50).

In turn, `COC(=O)c1ccc(Nc2ncc(F)c(Nc3ccc(C(=O)OC)cc3)n2)cc1` [Compound R945034] yielded an IC50 greater than 10 µM.

`Fc1cnc(Nc2ccc(OCc3ccccc3)c(C(F)(F)F)c2)nc1Nc1ccc(OCc2ccccc2)c(C(F)(F)F)c1` [Compound R950090] yielded an IC50 greater than 10 µM.

Compound `COc1cc(Nc2ncc(F)c(Nc3ccc(C(=O)O)c(OC)c3)n2)ccc1C(=O)O` [Compound R945068] yielded an IC50 greater than 10 µM.

The compound `Fc1cnc(Nc2ccc(Cl)cc2)nc1Nc1ccc(Cl)cc1` [Compound R926206] came in with an IC50 greater than 10 µM.

Turning to `Oc1cccc(Nc2nc(NCc3ccc4c(c3)CCO4)ncc2F)c1` [Compound R950213], the IC50 is greater than 10 µM.

Compound `COc1ccc(Nc2ncc(F)c(Nc3ccc4c(c3)OCCO4)n2)cc1OC` [Compound R926212] showed an IC50 of 0.56 µM.

Take `Fc1ccc(Nc2ncc(F)c(Nc3ccc(F)c(Cl)c3)n2)cc1Cl` [Compound R926223]: the IC50 was greater than 10 µM.

With `Fc1cc(Nc2ncc(F)c(Nc3ccc(C(F)(F)F)c(F)c3)n2)ccc1C(F)(F)F` [Compound R926018], the IC50 was greater than 10 µM.

With `CC(=O)Nc1cccc(Nc2ncc(F)c(Nc3cccc(NC(C)=O)c3)n2)c1` [Compound R926682], the IC50 was determined as 5.95 µM.

Compound `Fc1cnc(NC(c2ccc(Cl)cc2)c2ccc(Cl)cc2)nc1NC(c1ccc(Cl)cc1)c1ccc(Cl)cc1` [Compound R935006] displayed an IC50 greater than 10 µM.

The compound `Oc1c(Cl)cc(Nc2ncc(F)c(Nc3cc(Cl)c(O)c(Cl)c3)n2)cc1Cl` [Compound R940215] showed an IC50 greater than 10 µM.

Compound `Nc1cccc(Nc2nc(Nc3cccc(O)c3)ncc2F)c1` [Compound R950163] returned an IC50 of 24.1 µM.

Compound `COc1ccc(OCCNc2ncc(F)c(Nc3ccc4c(c3)OCCO4)n2)cc1` [Compound R950204] gave an IC50 greater than 10 µM.

For `CN(C)c1ccc(Nc2ncc(F)c(Nc3ccc(N(C)C)cc3)n2)cc1` [Compound R926086], the IC50 came to 6.63 µM.

`CCCNC(=O)c1cccc(Nc2ncc(F)c(Nc3cccc(O)c3)n2)c1` [Compound R926937] returned an IC50 greater than 10 µM.

For the compound `COC(=O)c1cc2cc(Nc3ncc(F)c(Nc4cccc(OC(C)C)c4)n3)ccc2o1` [Compound R926487], the IC50 was 48.9 µM.

The compound `Fc1cnc(Nc2ccc3c(c2)OCO3)nc1Nc1ccc2c(c1)OCO2` [Compound R925776] displayed an IC50 of 17.1 µM.

For the compound `CCOC(=O)Cc1ccc(Nc2ncc(C#N)c(Nc3ccc(CC(=O)OCC)cc3)n2)cc1` [Compound R926662], the IC50 was greater than 10 µM.
